Reference: patent publication US20140243302A1, “BRIDGED BICYCLIC COMPOUNDS FOR THE TREATMENT OF BACTERIAL INFECTIONS” (priority 2011, published 2014)
In brackets after ≈: the same amount, converted by molar mass.

Tested on: Staphylococcus aureus Smith
Assay: MIC assay, modified agar dilution (CLSI), S. aureus Smith
Assay type: cell-based
Conditions: Staphylococcus aureus, agar dilution, 35° C., 16-20 hr; lowest concentration that completely inhibited growth; read-out: S_aureus_Smith_WT_MIC
Procedure, shortened: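 Strains were spotted at about 1×10^4 CFU onto compound-containing Mueller Hinton agar (two-fold series, 128-0.001 μg/mL), horse blood 5% added for pneumococcus and enterococcus. MIC read after 16-20 hr at 35 °C, following a modified CLSI agar dilution method.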

Structure (SMILES) | MIC [µg/mL]
COc1ccc2ncc(F)c(CCC34CCC(NCc5cc6[nH]c(=O)cnc6cn5)(CC3)CO4)c2n1 [Example 179, 7-[({1-[2-(3-Fluoro-6-methoxy-1,5-naphthyridin-4-yl)ethyl]-2-oxabicyclo[2.2.2]oct-4-yl}amino)methyl]pyrido[3,4-b]pyrazin-2(1H)-one] | 0.5 (≈ 1.02 µM)
CC(O)CCOc1ccc2ncc(F)c(CCC34CCC(NCc5ccc6c(n5)NC(=O)CO6)(CC3)CO4)c2n1 (stereo not shown) [Example 181, 6-{[(1-{2-[3-Fluoro-6-(3-hydroxybutoxy)-1,5-naphthyridin-4-yl]ethyl}-2-oxabicyclo[2.2.2]oct-4-yl)amino]methyl}-2H-pyrido[3,2-b][1,4]oxazin-3(4H)-one] | 0.125 (≈ 0.227 µM)
COc1ccc2ncc(F)c(CC(O)C34CCC(NCc5cc6[nH]c(=O)cnc6cn5)(CC3)CO4)c2n1 (stereo not shown) [Example 182, 7-[({1-[2-(3-Fluoro-6-methoxy-1,5-naphthyridin-4-yl)-1-hydroxyethyl]-2-oxabicyclo[2.2.2]oct-4-yl}amino)methyl]pyrido[3,4-b]pyrazin-2(1H)-one] | 4 (≈ 7.9 µM)
COc1ccc2ncc(F)c(CCC34CCC(NCc5cc6cccnc6n(C)c5=O)(CC3)CO4)c2n1.Cl [Example 183, 3-((1-(2-(3-Fluoro-6-methoxy-1,5-naphthyridin-4-yl)ethyl)-2-oxabicyclo[2.2.2]octan-4-ylamino)methyl)-1-methyl-1,8-naphthyridin-2(1H)-one Hydrochloride] | 1
N[C@@H]1CO[C@@H]1COc1ccc2ncc(F)c(CCC34CCC(NCc5ccc6c(n5)NC(=O)CO6)(CC3)CO4)c2n1 [Example 184, 6-((1-(2-(6-(((2S,3R)-3-Aminooxetan-2-yl)methoxy)-3-fluoro-1,5-naphthyridin-4-yl)ethyl)-2-oxabicyclo[2.2.2]octan-4-ylamino)methyl)-2H-pyrido[3,2-b][1,4]oxazin-3(4H)-one] | 0.25 (≈ 0.443 µM)
N[C@@H]1CO[C@H]1COc1ccc2ncc(F)c(CCC34CCC(NCc5ccc6c(n5)NC(=O)CO6)(CC3)CO4)c2n1 [Example 185, 6-((1-(2-(6-(((2R,3R)-3-Aminooxetan-2-yl)methoxy)-3-fluoro-1,5-naphthyridin-4-yl)ethyl)-2-oxabicyclo[2.2.2]octan-4-ylamino)methyl)-2H-pyrido[3,2-b][1,4]oxazin-3(4H)-one] | 0.125 (≈ 0.221 µM)
COc1ccc2ncc(F)c(C(CO)CC34CCC(NCc5ccc6c(n5)NC(=O)CO6)(CC3)CO4)c2n1.Cl (stereo not shown) [Example 194, 1-(2-(3-Fluoro-6-methoxy-1,5-naphthyridin-4-yl)-3-hydroxypropyl)-N-((3-oxo-3,4-dihydro-2H-pyrido[3,2-b][1,4]oxazin-6-yl)methyl)-2-oxabicyclo[2.2.2]octan-4-aminium chloride] | 1
COc1ccc2ncc(F)c(C(CC34CCC(NCc5ccc6c(n5)NC(=O)CO6)(CC3)CO4)C(=O)[O-])c2n1.[Na+] (stereo not shown) [Example 195, Sodium 2-(3-fluoro-6-methoxy-1,5-naphthyridin-4-yl)-3-(4-(((3-oxo-3,4-dihydro-2H-pyrido[3,2-b][1,4]oxazin-6-yl)methyl)amino)-2-oxabicyclo[2.2.2]octan-1-yl)propanoate] | 1
COc1ccc2ncc(F)c(CCC34CCC(NCc5nc6c(c(C)c5F)OCC(=O)N6)(CC3)CO4)c2n1.Cl [Example 197, 1-(2-(3-Fluoro-6-methoxy-1,5-naphthyridin-4-yl)ethyl)-N-((7-fluoro-8-methyl-3-oxo-3,4-dihydro-2H-pyrido[3,2-b][1,4]oxazin-6-yl)methyl)-2-oxabicyclo[2.2.2]octan-4-aminium chloride] | 0.5
CCc1c(CNC23CCC(CCc4c(F)cnc5ccc(OC)nc45)(CC2)OC3)nc2c(c1C)OCC(=O)N2.Cl [Example 198, N-((7-Ethyl-8-methyl-3-oxo-3,4-dihydro-2H-pyrido[3,2-b][1,4]oxazin-6-yl)methyl)-1-(2-(3-fluoro-6-methoxy-1,5-naphthyridin-4-yl)ethyl)-2-oxabicyclo[2.2.2]octan-4-aminium chloride] | 2

Second part, the molecule after the results:

MIC [µg/mL] | Structure (SMILES)
0.031 (≈ 0.0638 µM) | N#Cc1ccc2ccc(=O)n(CCC34CCC(NCc5ccc6c(n5)NC(=O)CO6)(CC3)CO4)c2c1 [Example 180, 2-Oxo-1-[2-(4-{[(3-oxo-3,4-dihydro-2H-pyrido[3,2-b][1,4]oxazin-6-yl)methyl]amino}-2-oxabicyclo[2.2.2]oct-1-yl)ethyl]-1,2-dihydroquinoline-7-carbonitrile]
0.063 (≈ 0.121 µM) | C=CCOc1ccc2ncc(F)c(CCC34CCC(NCc5ccc6c(n5)NC(=O)CO6)(CC3)CO4)c2n1 [Example 186, 6-{[(1-{2-[3-Fluoro-6-(prop-2-en-1-yloxy)-1,5-naphthyridin-4-yl]ethyl}-2-oxabicyclo[2.2.2]oct-4-yl)amino]methyl}-2H-pyrido[3,2-b][1,4]oxazin-3(4H)-one]
0.016 (≈ 0.0331 µM) | COc1ccc2ncc(F)c(CCC34CCC(NC/C=C/c5cc(F)ccc5F)(CC3)CO4)c2n1 [Example 188, (E)-N-(3-(2,5-Difluorophenyl)allyl)-1-(2-(3-fluoro-6-methoxy-1,5-naphthyridin-4-yl)ethyl)-2-oxabicyclo[2.2.2]octan-4-amine]
0.016 | COc1cc(F)c2ncc(F)c(CCC34CCC(NCc5ccc6c(n5)NC(=O)CO6)(CC3)CO4)c2c1.Cl [Example 189, 6-((1-(2-(3,8-Difluoro-6-methoxyquinolin-4-yl)ethyl)-2-oxabicyclo[2.2.2]octan-4-ylamino)methyl)-2H-pyrido[3,2-b][1,4]oxazin-3(4H)-one Hydrochloride]
0.063 | COc1ccc2ncc(F)c(CC(C)(O)C34CCC(NCc5ccc6c(n5)NC(=O)CO6)(CC3)CO4)c2n1.Cl (stereo not shown) [Example 190, 6-((1-(1-(3-Fluoro-6-methoxy-1,5-naphthyridin-4-yl)-2-hydroxypropan-2-yl)-2-oxabicyclo[2.2.2]octan-4-ylamino)methyl)-2H-pyrido[3,2-b][1,4]oxazin-3(4H)-one Hydrochloride]
0.016 | COc1cc(C)c2ncc(F)c(CCC34CCC(NCc5ccc6c(n5)NC(=O)CO6)(CC3)CO4)c2n1.Cl [Example 191, 6-((1-(2-(3-Fluoro-6-methoxy-8-methyl-1,5-naphthyridin-4-yl)ethyl)-2-oxabicyclo[2.2.2]octan-4-ylamino)methyl)-2H-pyrido[3,2-b][1,4]oxazin-3(4H)-one Hydrochloride]
0.031 (≈ 0.0573 µM) | CNC(=O)COc1ccc2ncc(F)c(CCC34CCC(NC/C=C/c5cc(F)ccc5F)(CC3)CO4)c2n1 [Example 192, (E)-2-(8-(2-(4-(3-(2,5-Difluorophenyl)allylamino)-2-oxabicyclo[2.2.2]octan-1-yl)ethyl)-7-fluoro-1,5-naphthyridin-2-yloxy)-N-methylacetamide]
0.031 (≈ 0.0691 µM) | COc1ccc2ncc(F)c(CCC34CCC(NC/C=C/c5ccccn5)(CC3)CO4)c2n1 [Example 193, (E)-1-(2-(3-Fluoro-6-methoxy-1,5-naphthyridin-4-yl)ethyl)-N-(3-(pyridin-2-yl)allyl)-2-oxabicyclo[2.2.2]octan-4-amine]
0.25 (≈ 0.45 µM) | COc1ccc2ncc(F)c(CCC34CCC(NC(=O)c5nc6c(cc5Cl)SCC(=O)N6)(CC3)CC4)c2n1 [Example 196, 7-Chloro-N-(4-(2-(3-fluoro-6-methoxy-1,5-naphthyridin-4-yl)ethyl)bicyclo[2.2.2]octan-1-yl)-3-oxo-3,4-dihydro-2H-pyrido[3,2-b][1,4]thiazine-6-carboxamide]
